Measured values from patent US10759749B2, “Therapeutic agent for diabetes” (JCR Pharmaceuticals Co., Ltd., priority 2016, dated 2020).
Like-named read-outs stand apart in the source and are kept apart here.

Legend:
[1] = test system: wild type mice; experiment: Measurement of hypoglycemic action using wild type mice (glucose loading); format: in vivo, C57BL/6JJc1 mice; conditions: oral 10 to 100 mg/kg body weight, 20 minutes before glucose loading 1.5 g/kg
Procedure: To male C57BL/6JJc1 mice (CLEA Japan Inc.) of 18 to 30 weeks old fasted for 16 hours, 10, 30 or 100 mg/kg body weight of DSC108-Na was orally administered 20 minutes before glucose loading (1.5 g glucose/kg body weight) (10 mg/kg body weight administration group, 30 mg/kg body weight administration group and 100 mg/kg body weight administration group, respectively). As a control, DSC108-Na non-administration group (vehicle administration group) was placed. Glucose concentration in the blood was measured over time over 120 minutes after the administration using Antsense III glucose analyzer (Horiba Inc.). Measurement was carried out using 4 mice in each group.

[2] = mouse, in vivo, po, 30 mg/kg
Procedure: (§1) Peripheral blood was collected over time from the tail vein after administration. The collected blood was centrifuged to obtain plasma. An extraction solution (chloroform:methanol:water=1:2:0.8) containing 20 μM methionine sulfone was added to the plasma, followed by stirring and centrifugation. After filtering the extracted solution fraction with a 5 kD filter (Millipore Inc.), the extract was lyophilized. The extract obtained by lyophilization was dissolved in pure water and subjected to mass spectrometry. Mass spectrometry was performed using a mass spectrometer (LCMS-8050, Shimazu Inc.) fitted with liquid chromatography (Nexera UHPLC, Shimazu Inc.). Separation by liquid chromatography was performed with a double gradient of 0.1% formic acid aqueous solution and 0.1% acetonitrile formic acid solution using Discovery HS F5 column (3 μm, 2.1 mm×150 mm, Shigma-Aldrich Inc.).

[3] = test system: type 2 diabetes model rats; experiment: Measurement of hypoglycemic action using type 2 diabetes model rats (glucose loading); format: in vivo; conditions: GK/Slc rats, oral 100 mg/kg body weight
Procedure: To male GK/Slc rats (Japan SLC Inc.) 18-30 weeks old fasted for 6 hours, DSC108-Na was orally administered at 100 mg/kg body weight 20 minutes before glucose loading (1.5 g glucose/kg body weight) (DSC108-Na administration group). As a control, DSC108-Na non-administration group (vehicle administration group) was placed. The glucose concentration in the blood was measured using Antsense III glucose analyzer (Horiba Inc.). In addition, blood insulin concentration was measured by an ELISA method using an insulin measurement kit (Morinaga Inc.). Not limited to this examination, all animal tests were conducted in accordance with the provisions of the Kobe University Animal Experiment Implementation Rules with the approval of the Animal Experimental Ethics Committee of Kobe University.

[4] = Measurement of blood concentration after oral administration
Procedure: as §1

[5] = target: T1, KATP channel (human SUR1 and human Kir6.2 reconstituted in COS-1 cells) (Homo sapiens, UniProt Q09428); experiment: Electrophysiological test using KATP channel expressing COS-1 cells; format: cell-based; conditions: 300 μM diazoxide; read-out: IC50 of inhibition of polarization of COS-1 cell membrane via KATP channel induced by diazoxide
T1 construct: expressed in transfected cells; host or cells: COS-1 cells
T1 sequence (Q09428 whole entry): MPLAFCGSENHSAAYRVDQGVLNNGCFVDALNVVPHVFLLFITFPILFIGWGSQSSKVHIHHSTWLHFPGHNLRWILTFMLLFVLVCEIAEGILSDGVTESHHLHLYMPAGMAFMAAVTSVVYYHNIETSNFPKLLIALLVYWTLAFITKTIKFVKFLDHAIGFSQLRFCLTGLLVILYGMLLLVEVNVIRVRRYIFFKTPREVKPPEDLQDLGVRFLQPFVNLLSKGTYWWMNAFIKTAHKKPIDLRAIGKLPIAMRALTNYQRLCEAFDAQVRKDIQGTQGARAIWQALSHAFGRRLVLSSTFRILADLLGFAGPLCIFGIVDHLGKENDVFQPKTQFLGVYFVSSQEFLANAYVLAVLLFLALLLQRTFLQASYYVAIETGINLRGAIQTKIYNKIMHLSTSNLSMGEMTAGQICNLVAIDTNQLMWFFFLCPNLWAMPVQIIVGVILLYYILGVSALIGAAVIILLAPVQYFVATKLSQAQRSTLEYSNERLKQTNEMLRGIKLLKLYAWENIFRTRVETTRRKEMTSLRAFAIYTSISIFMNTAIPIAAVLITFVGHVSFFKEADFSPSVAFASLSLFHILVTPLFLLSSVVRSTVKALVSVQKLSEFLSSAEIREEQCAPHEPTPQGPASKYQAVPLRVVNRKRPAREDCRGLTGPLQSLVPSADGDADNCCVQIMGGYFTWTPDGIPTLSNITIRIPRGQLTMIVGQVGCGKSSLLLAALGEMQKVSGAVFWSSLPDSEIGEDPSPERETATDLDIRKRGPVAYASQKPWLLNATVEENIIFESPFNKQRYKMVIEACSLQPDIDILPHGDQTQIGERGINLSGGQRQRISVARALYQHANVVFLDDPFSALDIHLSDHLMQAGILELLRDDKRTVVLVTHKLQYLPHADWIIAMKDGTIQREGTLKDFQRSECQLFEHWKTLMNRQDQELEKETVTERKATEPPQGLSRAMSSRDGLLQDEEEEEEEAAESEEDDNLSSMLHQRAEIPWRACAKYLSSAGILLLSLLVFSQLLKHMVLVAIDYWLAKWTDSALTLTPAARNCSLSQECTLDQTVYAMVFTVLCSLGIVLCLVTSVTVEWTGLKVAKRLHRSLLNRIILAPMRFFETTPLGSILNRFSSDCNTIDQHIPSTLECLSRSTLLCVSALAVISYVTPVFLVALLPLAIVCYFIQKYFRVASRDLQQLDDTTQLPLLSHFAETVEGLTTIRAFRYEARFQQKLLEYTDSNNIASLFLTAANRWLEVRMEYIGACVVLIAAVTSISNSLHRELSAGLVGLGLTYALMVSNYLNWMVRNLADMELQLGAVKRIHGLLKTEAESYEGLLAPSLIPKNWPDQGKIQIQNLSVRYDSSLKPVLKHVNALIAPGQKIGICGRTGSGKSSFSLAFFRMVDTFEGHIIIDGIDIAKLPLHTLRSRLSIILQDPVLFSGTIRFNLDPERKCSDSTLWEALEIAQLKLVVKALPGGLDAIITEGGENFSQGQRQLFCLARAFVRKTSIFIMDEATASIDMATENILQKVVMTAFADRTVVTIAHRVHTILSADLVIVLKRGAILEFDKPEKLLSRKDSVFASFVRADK
T1 sequence (Q14654 whole entry partner): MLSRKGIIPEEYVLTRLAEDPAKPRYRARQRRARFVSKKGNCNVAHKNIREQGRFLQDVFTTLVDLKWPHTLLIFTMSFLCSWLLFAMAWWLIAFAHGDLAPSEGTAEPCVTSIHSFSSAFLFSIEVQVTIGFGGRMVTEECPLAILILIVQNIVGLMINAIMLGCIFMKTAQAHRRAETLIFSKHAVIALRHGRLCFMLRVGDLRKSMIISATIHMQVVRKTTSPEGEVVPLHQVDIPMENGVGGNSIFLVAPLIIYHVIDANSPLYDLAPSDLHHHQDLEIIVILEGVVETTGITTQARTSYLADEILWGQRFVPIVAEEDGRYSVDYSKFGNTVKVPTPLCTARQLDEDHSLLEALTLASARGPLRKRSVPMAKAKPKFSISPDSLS
Procedure: Expression vectors incorporating the gene encoding human SUR1 (hSUR1) and expression vector incorporating the gene encoding human Kir6.2 (hKir6.2) were introduced into COS-1 cells together, and the KATP channel was reconstituted with COS-1 cells (Inagaki N. Science. 270, 1166-70 (1995)). The cells were cultured in DMEM medium (Sigma-Aldrich Inc.) supplemented with 10% FBS and plated on a 3.5 cm dish on which glass flakes coated with collagen had been spread prior to the experiment, and incubated at 37° C. for 24 to 72 hours.
The membrane potential of COS-1 cells reconstituted with KATP channels was determined by the method described in (Gonoi TJ Biol. Chem., 269: 16989-92 (1994)), in the current clamp mode with perforated patch clamp method. […] Inhibitory effect of DSC108 on the polarization of COS-1 cell membrane via KATP channel induced by 300 μM diazoxide (Sigma Chemical Inc.) under these conditions was measured.
At this time, outward current induced by 300 μM diazoxide (Sigma Chemical Inc.) was measured by […] patch clamp assay, and this value was set to 0 mV. The value of outward current when DSC108, glibenclamide or glicrazaide (Sigma Chemical Inc.) was added together with diazoxide was determined to determine the inhibitory effect (IC50) of these agents on the polarization of the cell membrane induced by diazoxide.

[6] = target: T2, human SUR1 (hSUR1) (Homo sapiens, UniProt Q09428); experiment: [^3H] glibenclamide competition test; format: binding; conditions: 10 nM [^3H] glibenclamide, 30 minutes
T2 construct: expressed in transfected cells
T2 sequence (Q09428 whole entry): as the sequence (Q09428 whole entry) above
Procedure: An expression vector incorporating a gene encoding human SUR1 (hSUR1) was introduced into MIN6-K8 cells by a conventional method to establish a cell line MIN6-K8, which expresses hSUR1 strongly. The MIN6-K8 cells expressing strongly hSUR1 were cultured in a buffer containing 10 nM [^3H] glibenclamide and DSC108-Na for 30 minutes. In this, the concentration of DSC108-Na in the buffer was 300 μM to 1 mM. The cells were vacuum-filtered and recovered on Whatmann GF/C filters (Whatmann International Inc.), and then the filters were washed three times with 4 mL of ice-cold buffer. After washing, radioactivities of the filters were measured with a liquid scintillation counter, and the amount of [^3H] glibenclamide bound to MIN6-K8 cells expressing strongly hSUR1 via hSUR1 was measured. Then, the value at the time of non-addition of DSC108-Na was taken as 100%, and the binding amount (%) of [^3H] glibenclamide to MIN6-K8 cells was determined as a relative value to this value.

[7] = test system: MIN6-K8 cells; experiment: Insulin secretion stimulation test using MIN6-K8 cells; format: cell-based; conditions: for insulin secretion from MIN6-K8 cells (relative to control): 1 μM to 100 μM test compound, 11.2 mM glucose, 30 minutes; for amount of insulin secretion from MIN6-K8 cells at 100 μM compared with 30 μM: concentration of 100 μM
Procedure: MIN6-K8 cells (cells similar to the MIN6-m9 cell line deposited as FERM P-18081) were cultured in Dulbecco's modified Eagle's medium (DMEM medium) supplemented with 10% FBS, 50 μM 2-mercaptoethanol, 100 mg/L streptomycin and 60.5 mg/L penicillin sulfate at 37° C. After washing the MIN 6-K8 cells twice with medium, the cells were washed twice with 133.4 mM NaCl, 4.7 mM KCl, 1.2 mM KH2PO4, 1.2 mM MgSO4, 2.5 mM CaCl2, 5.0 mM NaHCO3, 2.8 mM glucose, 0.1% BSA and 10 mM HEPES buffer (pH 7.4) for 30 minutes. Cells were then cultured for 30 minutes in the KRBH buffer containing the test compound and 11.2 mM glucose. After incubation, the concentration of insulin contained in the KRBH buffer solution was measured using an insulin assay kit (CIS Bio International Inc.). The concentration of insulin was obtained as a relative value when the concentration of insulin when the test compound was not added was taken as 1. Here, DSC108 and C8 were used as test compounds, and the abilities to promote insulin secretion of both drugs were compared within a concentration range of 1 μM to 100 μM. Measurement was carried out with n=3.
For the 1,1-diphenyl-4-cyclohexyl-semicarbazide derivatives numbered 2 to 7 shown in Table 1, an insulin secretion stimulation test using the above MIN6-K8 cells was performed. The concentration of the test compound was 100 μM, and the amount of secretion when the amount of insulin secreted when no test compound was added was taken as 1 was measured. Incidentally, the number 1 is 1,1-diphenyl-4-cyclohexyl-semicarbazide represented by the chemical formula (18). Numbers 2 to 7 are compounds in which one of hydrogen atoms on the cyclohexyl ring of 1,1-diphenyl-4-cyclohexyl-semicarbazide is substituted with a carboxyl group.

[8] = test system: pancreatic β cells; experiment: Electrophysiological test using pancreatic β cells (membrane potential, perforated patch clamp); format: cell-based, C57BL/6 mice; conditions: in the presence of 30 μM compound; −69±2 mV in its absence
Procedure: Islets were isolated from C57BL/6 mice by collagenase digestion method in accordance with the method described “in Shibasaki T. Proc Natl Acad Sci USA. 104, 19333-8 (2007)”. The pancreatic islet cells were dispersed and cultured in DMEM supplemented with 10% FBS, and then plated on a 3.5 cm dish sheeted prior to the experiment with a glass flake coated with collagen.
Membrane potential of pancreatic β cells was measured by a perforated patch clamp method (Gonoi T J J. Biol. Chem., 269: 16989-92 (1994)) in current clamp mode. As an extracellular solution, 5 mM HEPES buffer-NaOH (pH 7.4) containing 143 mM NaCl, 5.4 mM KCl, 1.8 mM CaCl2, 0.5 mM MgCl2, 0.33 mM NaHPO4 and 5.5 mM glucose was used. As a pipette solution, 11 mM HEPES-KOH buffer (pH 7.4) containing 107 mM KCl, 11 mM EGTA, 2 mM MgSO4, 1 mM CaCl2 and […] ATP-K2 was used. Under this condition, outward current induced by 30 μM DSC108 was measured by a pierced patch clamp assay.

[9] = test system: MIN6-K8 cells; experiment: Measurement of intracellular calcium ion concentration (Fura-2-AM); format: cell-based; conditions: 3 μM to 30 μM, 2.8 mM glucose
Procedure: In accordance with the method described in “Shimaoto K. Mol Pharmacol. 53, 195-201 (1998)”, measurement of intracellular calcium concentration was performed using fura-2-acetoxymethyl ester (Fura-2-AM, Dojindo Inc.) which is a calcium ion sensitive fluorescent reagent. MIN6-K8 cells were grown in Dulbecco's modified Eagle medium (DMEM medium) supplemented with 10% FBS, 50 μM 2-mercaptoethanol, 100 mg/L streptomycin and 60.5 mg/L penicillin sulfate in a humidified condition of 5% CO2, at 37° C.
MIN6-K8 cells were then left alone in KRBH buffer containing 5 μM Fura-2-AM and 2.8 mM glucose at 37° C. for 20 minutes. Then, KRBH buffer containing 3 μM, 10 μM or 30 μM of DSC108 was each added as a test compound and fluorescence intensity at 340 nm and 380 nm were measured using a dual wavelength fluorometer (Fluoroskan Ascent CF, Labsystem Inc.) over time for 20 minutes and the values of “fluorescence intensity at 340 nm/fluorescence intensity at 380 nm” were determined. […] Measurement was carried out with n=4.

[10] = test system: mouse pancreases; experiment: Insulin secretion stimulation test using mice (pancreas perfusion); format: in vivo; conditions: 10 μM, 2.8 mM glucose, perfused mouse pancreas
Procedure: Insulin secretion stimulation test using mouse was performed in accordance with the method described in Bonnevie-Nielsen V. Diabetes. 30. 424-9 (1981) and Miki T. Diabetes. 54. 1056-63 (2005). Male mice, 16 to 20 weeks old, fasted for 6 hours, were anesthetized by administering sodium pentobarbital at a dose of 80 mg/kg body weight. The anesthetized mouse pancreases were perfused with KRBH buffer containing 4.6% dextran and 0.25% BSA aerated at 95% O2/5% CO2.
Subsequently, mouse pancreases were perfused with KRBH buffer containing 2.8 mM glucose and 10 μM DSC 108, and the perfused solution was collected every minute, and the concentration of insulin contained in the perfusion solution was measured with an insulin assay kit (CIS Bio international Inc.) over time. IN parallel, as a control, mouse pancreases were perfused with a KRBH buffer solution containing 2.8 mM glucose, and the concentration of insulin contained in the perfusion solution was measured in the same manner.

Q: For O=C(O)[C@H]1CC[C@@H](NC(=S)NN(c2ccccc2)c2ccccc2)CC1 [DSC108-Na], which “hypoglycemic effect (blood glucose concentration)” value [1] is on record?
A: dose-dependent hypoglycemic effect

Q: And the “disappearance from the blood” value [2]?
A: quickly disappeared from the blood

Q: And the “highest value in blood concentration” value [2]?
A: 72.4 µM

Q: And the “time after administration of the highest blood concentration” value [2]?
A: 30 min

Q: And the “duration of the effect of lowering the glucose concentration in the blood” value [3]?
A: 120 min

Q: And the “blood levels of insulin” value ([3]; 20 minutes after administration)?
A: increase in blood levels of insulin was observed

Q: Which results are given for Cc1ccc(S(=O)(=O)NC(=O)NN2CC3CCCC3C2)cc1 (centres unmarked) [Glyclazide, gliclazide]?
A: concentration at 120 min ([4]; male, C57BL/6JJc1, mouse, plasma, po, 30 mg/kg): 75 µM; time after administration of the highest blood concentration ([4]; mice, oral, 30 mg/kg body weight): 60 min; highest value in blood concentration ([4]; mice, oral, 30 mg/kg body weight, plasma): approximately 100 μM

Q: With O=C(O)[C@H]1CC[C@@H](NC(=S)NN(c2ccccc2)c2ccccc2)CC1 [DSC108] as the compound, how does the IC50 [5] read?
A: 2300 nM

Q: And the “binding of [^3H] glibenclamide to hSUR1-strongly expressed MIN6-K8 cells” value [6]?
A: inhibited the binding of [^3H] glibenclamide to hSUR1-strongly expressed MIN6-K8 cells in a concentration-dependent manner

Q: And the “insulin secretion promoting ability compared between the two test compounds” value ([7]; 1 μM to 100 μM)?
A: higher insulin secretion promoting ability as compared with C8

Q: And the “insulin secretion from MIN6-K8 cells (relative to control)” value [7]?
A: promoted insulin secretion from MIN6-K8 cells in a concentration-dependent manner

Q: What about the “amount of insulin secretion from MIN6-K8 cells at 100 μM compared with 30 μM” value [7] of the same compound?
A: decreased as compared with the concentration at 30 μM

Q: And the “membrane potential of pancreatic β cells” value [8]?
A: −54±4 mV

Q: And the “intracellular calcium ion concentration (fluorescence 340 nm/380 nm)” value [9]?
A: increased intracellular calcium ion concentration in a concentration-dependent manner

Q: And the “time after initiation of perfusion at which insulin concentration in the perfusion liquid increased” value [10]?
A: 5 min

Q: And the “time after start of perfusion at which insulin concentration returned to baseline” value [10]?
A: 9 min

Q: Which “insulin secretion from MIN6-K8 cells (relative to control)” value [7] does the source give for S=C(NC1CCCCC1)NN(c1ccccc1)c1ccccc1 [C8, 1,1-diphenyl-4-cyclohexyl-thiosemicarbazide] here?
A: promoted insulin secretion from MIN6-K8 cells in a concentration-dependent manner

Q: What about the “amount of insulin secretion from MIN6-K8 cells at 100 μM compared with 30 μM” value [7] of the same compound?
A: decreased as compared with the concentration at 30 μM
